Consider 21 compounds from US20230322846A9, “NEUROACTIVE STEROIDS AND THEIR METHODS OF USE” (SAGE THERAPEUTICS, INC., priority 2018, published 2023).

SMILES strings stand for the structures. Where only a bound is given, the exact number is not on record here.

The target of this assay is [35S]-TBPS binding, rat brain cortical membranes. Briefly: Steroid inhibition of [35S]-TBPS binding. Conditions: 3 nM [35S]-TBPS, in the presence of 5 mM GABA. As for the experimental part:
[^35S]-t-Butylbicyclophosphorothionate (TBPS) binding assays using rat brain cortical membranes in the presence of 5 mM GABA has been described (Gee et al, J. Pharmacol. Exp. Ther. 1987, 241, 346-353; Hawkinson et al, Mol. Pharmacol. 1994, 46, 977-985; Lewin, A. H et al., Mol. Pharmacol. 1989, 35, 189-194).
Briefly, cortices are rapidly removed following decapitation of carbon dioxide-anesthetized Sprague-Dawley rats (200-250 g). The cortices are homogenized in 10 volumes of ice-cold 0.32 M sucrose using a glass/teflon homogenizer and centrifuged at 1500×g for 10 min at 4° C. The resultant supernatants are centrifuged at 10,000×g for 20 min at 4° C. to obtain the P2 pellets. The P2 pellets are resuspended in 200 mM NaCl/50 mM Na—K phosphate pH 7.4 buffer and centrifuged at 10,000×g for 10 min at 4° C. This washing procedure is repeated twice and the pellets are resuspended in 10 volumes of buffer. Aliquots ([…]) of the membrane suspensions are incubated with 3 nM [^35S]-TBPS and […] aliquots of test drug dissolved in dimethyl sulfoxide (DMSO) (final 0.5%) in the presence of 5 mM GABA. The incubation is brought to a final volume of 1.0 mL with buffer. Nonspecific binding is determined in the presence of […] and ranged from 15 to 25%. Following a 90 min incubation at room temp, the assays are terminated by filtration through glass fiber filters (Schleicher and Schuell No. 32) using a cell harvester (Brandel) and rinsed three times with ice-cold buffer. Filter bound radioactivity is measured by liquid scintillation spectrometry. Non-linear curve fitting of the overall data for each drug averaged for each concentration is done using Prism (GraphPad). […] The concentration of test compound producing 50% inhibition (IC50) of specific binding and the maximal extent of inhibition (Imax) are determined for the individual experiments with the same model used for the overall data and then the means±SEM.s of the individual experiments are calculated.
Various compounds are or can be screened to determine their potential as modulators of [^35S]-TBPS binding in vitro. These assays are or can be performed in accordance with the above
Broadly, the IC50 is the concentration needed to halve the response being measured. For the compound `CC[C@]12CC[C@@](C)(O)C[C@H]1CC[C@H]1[C@@H]3CC[C@H](C(C)Cn4cc(C#N)cn4)[C@@]3(C)CC[C@@H]12` (stereo in doubt) [Example 325, 1-((S)-2-((3R,5R,8S,9S,10S,13S,14S,17R)-10-ethyl-3-hydroxy-3,13-dimethylhexadecahydro-1H-cyclopenta[a]phenanthren-17-yl)propyl)-1H-pyrazole-4-carbonitrile], the IC50 was under 100 nM.

For `CC[C@]12CC[C@@](C)(O)C[C@H]1CC[C@H]1[C@@H]3CC[C@H](C(C)Cn4cc(C#N)cn4)[C@@]3(C)CC[C@@H]12` (stereo in doubt) [Example 326, 1-((R)-2-((3R,5R,8S,9S,10S,13S,14S,17R)-10-ethyl-3-hydroxy-3,13-dimethylhexadecahydro-1H-cyclopenta[a]phenanthren-17-yl)propyl)-1H-pyrazole-4-carbonitrile], the IC50 is under 100 nM. For the compound `CCC[C@@]1(O)CC[C@@]2(C)[C@H](CC[C@H]3[C@@H]4CC[C@H](C(C)Cn5cc(C#N)cn5)[C@@]4(C)CC(=O)[C@@H]32)C1` (stereo in doubt) [Example 340, 1-((R)-2-((3R,5R,8S,9S,10S,13S,14S,17R)-3-hydroxy-10,13-dimethyl-11-oxo-3-propylhexadecahydro-1H-cyclopenta[a]phenanthren-17-yl)propyl)-1H-pyrazole-4-carbonitrile], the IC50 is under 100 nM. Consider `CCOC(=O)c1cnc(C[C@H](C)[C@H]2CC[C@H]3[C@@H]4CC[C@H]5C[C@](C)(O)CC[C@@H]5[C@H]4CC[C@]23C)o1` (stereo in doubt) [Example 455], for which the IC50 is under 100 nM. With `CCOC(=O)c1cnc(C[C@@H](C)[C@H]2CC[C@H]3[C@@H]4CC[C@@H]5C[C@](C)(O)CC[C@@H]5[C@H]4CC[C@]23C)o1` (stereo in doubt) [Example 456] the figure was 100 to 1000 nM. For the compound `C[C@@]1(O)CC[C@H]2[C@H](CC[C@@H]3[C@@H]2CC[C@]2(C)[C@@H](CN4CCCCC4=O)CC[C@@H]32)C1` [Example 1, 1-(((3R,5R,8R,9R,10S,13S,14S,17S)-3-hydroxy-3,13-dimethylhexadecahydro-1H-cyclopenta[a]phenanthren-17-yl)methyl)piperidin-2-one], the IC50 lay in the range of 1000 to 10000 nM.

As for `CN(C[C@H]1CC[C@H]2[C@@H]3CC[C@@H]4C[C@](C)(O)CC[C@@H]4[C@H]3CC[C@]12C)C(=O)c1ccccc1` [Example 2, N-(((3R,5R,8R,9R,10S,13S,14S,17S)-3-hydroxy-3,13-dimethylhexadecahydro-1H-cyclopenta[a]phenanthren-17-yl)methyl)-N-methylbenzamide], the IC50 fell in the range of 100 to 1000 nM.

`C[C@@]1(O)CC[C@H]2[C@H](CC[C@@H]3[C@@H]2CC[C@]2(C)[C@@H](CNC(=O)c4ccccc4)CC[C@@H]32)C1` [Example 3, N-(((3R,5R,8R,9R,10S,13S,14S,17S)-3-hydroxy-3,13-dimethylhexadecahydro-1H-cyclopenta[a]phenanthren-17-yl)methyl)benzamide]: the IC50 is under 100 nM. `CN(C[C@H]1CC[C@H]2[C@@H]3CC[C@@H]4C[C@](C)(O)CC[C@@H]4[C@H]3CC[C@]12C)S(=O)(=O)c1ccccc1` [Example 5, N-(((3R,5R,8R,9R,10S,13S,14S,17S)-3-hydroxy-3,13-dimethylhexadecahydro-1H-cyclopenta[a]phenanthren-17-yl)methyl)-N-methylbenzenesulfonamide]: the IC50 is under 100 nM.

As to `C[C@H]1CCCC(=O)N1C[C@H]1CC[C@H]2[C@@H]3CC[C@@H]4C[C@](C)(O)CC[C@@H]4[C@H]3CC[C@]12C` [Example 6, (S)-1-(((3R,5R,8R,9R,10S,13S,14S,17S)-3-hydroxy-3,13-dimethylhexadecahydro-1H-cyclopenta[a]phenanthren-17-yl)methyl)-6-methylpiperidin-2-one], the IC50 fell in the range of 1000 to 10000 nM. With `C[C@@H]1CCCC(=O)N1C[C@H]1CC[C@H]2[C@@H]3CC[C@@H]4C[C@](C)(O)CC[C@@H]4[C@H]3CC[C@]12C` [Example 7, (R)-1-(((3R,5R,8R,9R,10S,13S,14S,17S)-3-hydroxy-3,13-dimethylhexadecahydro-1H-cyclopenta[a]phenanthren-17-yl)methyl)-6-methylpiperidin-2-one], the IC50 was in the range of 1000 to 10000 nM. As for `C[C@@]1(O)CC[C@H]2[C@H](CC[C@@H]3[C@@H]2CC[C@]2(C)[C@@H](CNC(=O)Cc4ccccc4)CC[C@@H]32)C1` [Example 8, N-(((3R,5R,8R,9R,10S,13S,14S,17S)-3-hydroxy-3,13-dimethylhexadecahydro-1H-cyclopenta[a]phenanthren-17-yl)methyl)-2-phenylacetamide], the IC50 is under 100 nM. On to `C[C@@]1(O)CC[C@H]2[C@H](CC[C@@H]3[C@@H]2CC[C@]2(C)[C@@H](CN4C[C@@H](c5ccccc5)CC4=O)CC[C@@H]32)C1` [Example 9, (R)-1-(((3R,5R,8R,9R,10S,13S,14S,17S)-3-hydroxy-3,13-dimethylhexadecahydro-1H-cyclopenta[a]phenanthren-17-yl)methyl)-4-phenylpyrrolidin-2-one], for which the IC50 lay within 100 to 1000 nM. In the case of `C[C@@]1(O)CC[C@H]2[C@H](CC[C@@H]3[C@@H]2CC[C@]2(C)[C@@H](CN4C[C@H](c5ccccc5)CC4=O)CC[C@@H]32)C1` [Example 10, (S)-1-(((3R,5R,8R,9R,10S,13S,14S,17S)-3-hydroxy-3,13-dimethylhexadecahydro-1H-cyclopenta[a]phenanthren-17-yl)methyl)-4-phenylpyrrolidin-2-one], the IC50 lay within 100 to 1000 nM. In the case of `C[C@@]1(O)CC[C@H]2[C@H](CC[C@@H]3[C@@H]2CC[C@]2(C)[C@@H](CN4CC[C@@H](c5ccccc5)C4=O)CC[C@@H]32)C1` [Example 11, (S)-1-(((3R,5R,8R,9R,10S,13S,14S,17S)-3-hydroxy-3,13-dimethylhexadecahydro-1H-cyclopenta[a]phenanthren-17-yl)methyl)-3-phenylpyrrolidin-2-one], the IC50 was in the range of 100 to 1000 nM.

As to `C[C@@]1(O)CC[C@H]2[C@H](CC[C@@H]3[C@@H]2CC[C@]2(C)[C@@H](CN4CC[C@H](c5ccccc5)C4=O)CC[C@@H]32)C1` [Example 12, (R)-1-(((3R,5R,8R,9R,10S,13S,14S,17S)-3-hydroxy-3,13-dimethylhexadecahydro-1H-cyclopenta[a]phenanthren-17-yl)methyl)-3-phenylpyrrolidin-2-one], the IC50 was under 100 nM. Regarding `C[C@@]1(O)CC[C@H]2[C@H](CC[C@@H]3[C@@H]2CC[C@]2(C)[C@@H](CN4C(=O)CCC[C@@H]4c4ccccc4)CC[C@@H]32)C1` [Example 13, (R)-1-(((3R,5R,8R,9R,10S,13S,14S,17S)-3-hydroxy-3,13-dimethylhexadecahydro-1H-cyclopenta[a]phenanthren-17-yl)methyl)-6-phenylpiperidin-2-one], the IC50 is under 100 nM. Turning to `C[C@@]1(O)CC[C@H]2[C@H](CC[C@@H]3[C@@H]2CC[C@]2(C)[C@@H](CN4C(=O)CCC[C@H]4c4ccccc4)CC[C@@H]32)C1` [Example 14, (S)-1-(((3R,5R,8R,9R,10S,13S,14S,17S)-3-hydroxy-3,13-dimethylhexadecahydro-1H-cyclopenta[a]phenanthren-17-yl)methyl)-6-phenylpiperidin-2-one], the IC50 was in the range of 100 to 1000 nM. With `CCOC[C@@]1(O)CC[C@H]2[C@H](CC[C@@H]3[C@@H]2CC[C@]2(C)[C@@H](CNC(=O)c4ccccc4)CC[C@@H]32)C1` [Example 15, N-(((3R,5R,8R,9R,10S,13S,14S,17S)-3-(ethoxymethyl)-3-hydroxy-13-methylhexadecahydro-1H-cyclopenta[a]phenanthren-17-yl)methyl)benzamide] the figure was under 100 nM. Take `COC[C@@]1(O)CC[C@H]2[C@H](CC[C@@H]3[C@@H]2CC[C@]2(C)[C@@H](CNC(=O)c4ccccc4)CC[C@@H]32)C1` [Example 16, N-(((3R,5R,8R,9R,10S,13S,14S,17S)-3-hydroxy-3-(methoxymethyl)-13-methylhexadecahydro-1H-cyclopenta[a]phenanthren-17-yl)methyl)benzamide]: the IC50 is under 100 nM. Regarding `C[C@H](NS(=O)(=O)c1ccccc1)[C@H]1CC[C@H]2[C@@H]3CC[C@@H]4C[C@](C)(O)CC[C@@H]4[C@H]3CC[C@]12C` [Example 17, N—((S)-1-((3R,5R,8R,9R,10S,13S,14S,17S)-3-hydroxy-3,13-dimethylhexadecahydro-1H-cyclopenta[a]phenanthren-17-yl)ethyl)benzenesulfonamide], the IC50 was 1000 to 10000 nM.
